Laboratory results published in ChEMBL document CHEMBL4507263, “Data for DCP probe BAY-474” (2021).

Columns and labels:
[1] = molecular target: Mu-type opioid receptor (Homo sapiens) (UniProt P35372); conditions: Compound concentration 10.0 uM
[2] = molecular target: Activin receptor type-1B (Homo sapiens) (UniProt P36896); experiment: ALK4 (h) Millipore kinase activity assay; conditions: Compound concentration 1.0 uM
[3] = molecular target: Serine/threonine-protein kinase TAO1 (Homo sapiens) (UniProt Q7L7X3); experiment: TAO1 (h) Millipore kinase activity assay; conditions: Compound concentration 1.0 uM
[4] = molecular target: Mast/stem cell growth factor receptor Kit (Homo sapiens) (UniProt P10721); experiment: cKit (h) Millipore kinase activity assay; conditions: Compound concentration 1.0 uM
Rattus norvegicus = species on record: Rattus norvegicus; conditions: Compound concentration 10.0 uM
[5] = molecular target: Serine/threonine-protein kinase TAO3 (Homo sapiens) (UniProt Q9H2K8); experiment: TAO3 (h) Millipore kinase activity assay; conditions: Compound concentration 1.0 uM
Sequence of Serine/threonine-protein kinase TAO3 (Homo sapiens) (Q9H2K8 whole entry): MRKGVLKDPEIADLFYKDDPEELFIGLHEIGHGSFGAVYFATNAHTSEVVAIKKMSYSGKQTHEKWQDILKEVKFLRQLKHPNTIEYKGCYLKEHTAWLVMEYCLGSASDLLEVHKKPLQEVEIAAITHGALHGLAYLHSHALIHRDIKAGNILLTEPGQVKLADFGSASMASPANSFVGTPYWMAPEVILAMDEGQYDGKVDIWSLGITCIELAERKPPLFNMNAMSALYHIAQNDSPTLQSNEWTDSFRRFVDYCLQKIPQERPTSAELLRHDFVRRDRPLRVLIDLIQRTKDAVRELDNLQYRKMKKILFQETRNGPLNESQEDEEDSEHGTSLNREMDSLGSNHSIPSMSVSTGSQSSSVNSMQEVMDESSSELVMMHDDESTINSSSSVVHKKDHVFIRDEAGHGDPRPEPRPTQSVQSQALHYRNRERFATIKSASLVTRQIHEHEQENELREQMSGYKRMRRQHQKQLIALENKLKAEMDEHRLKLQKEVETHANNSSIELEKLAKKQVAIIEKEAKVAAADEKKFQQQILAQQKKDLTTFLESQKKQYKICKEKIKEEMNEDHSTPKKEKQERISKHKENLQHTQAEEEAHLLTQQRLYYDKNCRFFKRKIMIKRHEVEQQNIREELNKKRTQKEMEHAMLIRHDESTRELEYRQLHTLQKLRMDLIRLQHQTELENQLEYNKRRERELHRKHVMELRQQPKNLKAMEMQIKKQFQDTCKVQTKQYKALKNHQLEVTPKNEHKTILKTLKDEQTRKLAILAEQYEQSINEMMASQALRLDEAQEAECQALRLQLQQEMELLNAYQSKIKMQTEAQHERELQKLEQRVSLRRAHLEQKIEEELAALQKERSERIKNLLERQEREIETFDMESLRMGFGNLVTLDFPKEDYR

[6] = molecular target: Calcium/calmodulin-dependent protein kinase type II subunit gamma (Homo sapiens) (UniProt Q13555); experiment: CaMKIIgamma (h) Millipore kinase activity assay; conditions: Compound concentration 1.0 uM
[7] = molecular target: Sodium-dependent dopamine transporter (Homo sapiens) (UniProt Q01959); conditions: Compound concentration 10.0 uM
[8] = molecular target: D(1A) dopamine receptor (Homo sapiens) (UniProt P21728); conditions: Compound concentration 10.0 uM
[9] = molecular target: Serine/threonine-protein kinase haspin (Homo sapiens) (UniProt Q8TF76); experiment: Haspin (h) Millipore kinase activity assay; conditions: Compound concentration 1.0 uM
[10] = molecular target: Vascular endothelial growth factor receptor 3 (Homo sapiens) (UniProt P35916); experiment: Flt4 (h) Millipore kinase activity assay; conditions: Compound concentration 1.0 uM
[11] = molecular target: Estrogen receptor (Homo sapiens) (UniProt P03372); conditions: Compound concentration 10.0 uM
Sequence of Estrogen receptor (Homo sapiens) (P03372 whole entry): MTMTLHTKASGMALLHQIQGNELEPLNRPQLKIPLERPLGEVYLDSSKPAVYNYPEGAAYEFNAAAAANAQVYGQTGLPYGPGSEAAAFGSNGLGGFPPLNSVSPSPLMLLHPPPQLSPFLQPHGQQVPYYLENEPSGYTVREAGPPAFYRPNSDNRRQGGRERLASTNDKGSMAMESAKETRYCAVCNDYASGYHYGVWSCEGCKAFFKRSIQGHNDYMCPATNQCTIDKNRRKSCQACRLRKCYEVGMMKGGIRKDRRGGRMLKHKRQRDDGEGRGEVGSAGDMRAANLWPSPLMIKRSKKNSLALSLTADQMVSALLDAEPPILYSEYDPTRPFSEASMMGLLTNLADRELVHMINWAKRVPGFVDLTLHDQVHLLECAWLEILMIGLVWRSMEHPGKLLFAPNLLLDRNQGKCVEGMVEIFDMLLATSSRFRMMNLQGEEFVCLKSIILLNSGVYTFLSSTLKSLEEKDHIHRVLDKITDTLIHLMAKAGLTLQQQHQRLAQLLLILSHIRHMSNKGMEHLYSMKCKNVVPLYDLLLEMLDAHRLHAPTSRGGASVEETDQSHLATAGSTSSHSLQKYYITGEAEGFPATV

[12] = molecular target: Dual specificity mitogen-activated protein kinase kinase 4 (Mus musculus) (UniProt P47809); experiment: MKK4 (m) Millipore kinase activity assay; conditions: Compound concentration 1.0 uM
[13] = molecular target: Adenosine receptor A3 (Homo sapiens) (UniProt P0DMS8); conditions: Compound concentration 10.0 uM
[14] = molecular target: Ribosomal protein S6 kinase alpha-6 (Homo sapiens) (UniProt Q9UK32); experiment: Rsk4 (h) Millipore kinase activity assay; conditions: Compound concentration 1.0 uM
Sequence of Ribosomal protein S6 kinase alpha-6 (Homo sapiens) (Q9UK32 whole entry): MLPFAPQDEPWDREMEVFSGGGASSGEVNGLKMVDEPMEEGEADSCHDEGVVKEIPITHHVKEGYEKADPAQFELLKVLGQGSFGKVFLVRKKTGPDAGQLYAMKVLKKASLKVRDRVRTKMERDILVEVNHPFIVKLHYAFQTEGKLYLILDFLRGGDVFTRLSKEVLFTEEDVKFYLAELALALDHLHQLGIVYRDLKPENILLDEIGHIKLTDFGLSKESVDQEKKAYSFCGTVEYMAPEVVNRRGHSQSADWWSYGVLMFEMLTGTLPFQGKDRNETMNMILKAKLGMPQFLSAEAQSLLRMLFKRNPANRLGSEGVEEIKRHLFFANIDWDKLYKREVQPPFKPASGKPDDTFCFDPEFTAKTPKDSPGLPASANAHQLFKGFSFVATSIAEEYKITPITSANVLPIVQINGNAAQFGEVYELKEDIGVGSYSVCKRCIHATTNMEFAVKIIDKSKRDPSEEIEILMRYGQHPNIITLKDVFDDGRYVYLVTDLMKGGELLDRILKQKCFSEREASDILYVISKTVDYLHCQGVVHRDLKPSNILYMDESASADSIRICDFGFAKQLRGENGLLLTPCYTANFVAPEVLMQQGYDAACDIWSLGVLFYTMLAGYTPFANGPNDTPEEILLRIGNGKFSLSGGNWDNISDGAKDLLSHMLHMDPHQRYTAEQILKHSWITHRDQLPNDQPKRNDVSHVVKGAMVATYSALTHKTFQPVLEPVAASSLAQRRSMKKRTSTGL

[15] = molecular target: Dual specificity mitogen-activated protein kinase kinase 6 (Homo sapiens) (UniProt P52564); experiment: MKK6 (h) Millipore kinase activity assay; conditions: Compound concentration 1.0 uM
[16] = molecular target: Serine/threonine-protein kinase DCLK2 (Homo sapiens) (UniProt Q8N568); experiment: DCAMKL2 (h) Millipore kinase activity assay; conditions: Compound concentration 1.0 uM
[17] = molecular target: Serine/threonine-protein kinase MARK1 (Homo sapiens) (UniProt Q9P0L2); experiment: MARK1 (h) Millipore kinase activity assay; conditions: Compound concentration 1.0 uM
[18] = molecular target: Ribosomal protein S6 kinase alpha-4 (Homo sapiens) (UniProt O75676); experiment: MSK2 (h) Millipore kinase activity assay; conditions: Compound concentration 1.0 uM
[19] = molecular target: Serine/threonine-protein kinase PAK 6 (Homo sapiens) (UniProt Q9NQU5); experiment: PAK6 (h) Millipore kinase activity assay; conditions: Compound concentration 1.0 uM
[20] = molecular target: Dual specificity tyrosine-phosphorylation-regulated kinase 1A (Homo sapiens) (UniProt Q13627); conditions: Compound concentration 1000.0 nM
[21] = molecular target: Dual specificity tyrosine-phosphorylation-regulated kinase 2 (Homo sapiens) (UniProt Q92630); conditions: Compound concentration 1000.0 nM
[22] = molecular target: 5'-AMP-activated protein kinase catalytic subunit alpha-1 (Homo sapiens) (UniProt Q13131); conditions: Compound concentration 1000.0 nM
Sequence of 5'-AMP-activated protein kinase catalytic subunit alpha-1 (Homo sapiens) (Q13131 whole entry, looked up): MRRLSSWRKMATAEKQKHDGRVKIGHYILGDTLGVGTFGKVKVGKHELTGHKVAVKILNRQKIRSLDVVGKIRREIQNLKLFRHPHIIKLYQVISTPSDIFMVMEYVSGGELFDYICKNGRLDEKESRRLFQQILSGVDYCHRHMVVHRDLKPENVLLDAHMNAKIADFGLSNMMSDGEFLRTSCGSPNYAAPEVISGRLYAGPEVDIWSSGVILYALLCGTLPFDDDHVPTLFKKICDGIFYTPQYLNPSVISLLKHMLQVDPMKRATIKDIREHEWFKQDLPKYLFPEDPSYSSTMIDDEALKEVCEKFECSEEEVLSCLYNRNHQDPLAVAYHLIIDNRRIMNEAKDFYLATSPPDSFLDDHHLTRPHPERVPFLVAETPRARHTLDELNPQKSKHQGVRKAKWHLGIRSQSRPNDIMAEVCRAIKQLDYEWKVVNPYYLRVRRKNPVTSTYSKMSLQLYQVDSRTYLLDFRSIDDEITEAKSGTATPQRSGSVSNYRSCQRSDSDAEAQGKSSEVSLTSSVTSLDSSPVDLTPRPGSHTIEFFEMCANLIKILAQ

[23] = molecular target: Serine/threonine-protein kinase PLK1 (Homo sapiens) (UniProt P53350); conditions: Compound concentration 1000.0 nM
[24] = molecular target: Ephrin type-B receptor 4 (Homo sapiens) (UniProt P54760); conditions: Compound concentration 1000.0 nM
Sequence of Ephrin type-B receptor 4 (Homo sapiens) (P54760 whole entry): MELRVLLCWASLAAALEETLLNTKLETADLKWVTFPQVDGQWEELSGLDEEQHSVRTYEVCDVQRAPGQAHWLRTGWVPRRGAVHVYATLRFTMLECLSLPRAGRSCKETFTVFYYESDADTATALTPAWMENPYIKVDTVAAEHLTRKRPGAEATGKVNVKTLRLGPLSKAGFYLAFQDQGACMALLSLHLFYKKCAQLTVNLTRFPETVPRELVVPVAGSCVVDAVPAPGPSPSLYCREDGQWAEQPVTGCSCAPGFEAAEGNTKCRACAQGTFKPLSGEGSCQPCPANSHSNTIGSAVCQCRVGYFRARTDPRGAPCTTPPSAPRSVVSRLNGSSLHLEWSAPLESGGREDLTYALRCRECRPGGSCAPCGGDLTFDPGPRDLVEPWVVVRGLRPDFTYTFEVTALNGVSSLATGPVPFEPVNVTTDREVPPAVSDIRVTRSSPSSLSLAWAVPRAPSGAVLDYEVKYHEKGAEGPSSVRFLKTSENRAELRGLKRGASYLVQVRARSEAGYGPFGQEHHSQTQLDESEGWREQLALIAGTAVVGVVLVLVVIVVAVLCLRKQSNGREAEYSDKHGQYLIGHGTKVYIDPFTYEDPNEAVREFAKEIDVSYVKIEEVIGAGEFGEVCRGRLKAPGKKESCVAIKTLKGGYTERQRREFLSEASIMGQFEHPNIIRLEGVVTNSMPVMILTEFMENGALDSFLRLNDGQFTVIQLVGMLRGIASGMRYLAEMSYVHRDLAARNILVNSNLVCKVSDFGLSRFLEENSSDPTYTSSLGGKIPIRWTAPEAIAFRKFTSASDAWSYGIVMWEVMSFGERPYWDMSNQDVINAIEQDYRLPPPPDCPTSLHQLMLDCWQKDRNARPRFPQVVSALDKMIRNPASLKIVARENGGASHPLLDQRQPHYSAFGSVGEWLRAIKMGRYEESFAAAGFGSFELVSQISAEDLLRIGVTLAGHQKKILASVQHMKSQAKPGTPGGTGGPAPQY

[25] = tested on: Mast/stem cell growth factor receptor Kit (Homo sapiens), P10721 [D816H]; conditions: Compound concentration 1000.0 nM
[26] = molecular target: Phosphorylase b kinase regulatory subunit alpha, liver isoform (Homo sapiens) (UniProt P46019); conditions: Compound concentration 1000.0 nM
[27] = molecular target: Tyrosine-protein kinase BTK (Homo sapiens) (UniProt Q06187); conditions: Compound concentration 1000.0 nM
[28] = molecular target: Calcium/calmodulin-dependent protein kinase type II subunit delta (Homo sapiens) (UniProt Q13557); conditions: Compound concentration 1000.0 nM
[29] = molecular target: Protein kinase C eta type (Homo sapiens) (UniProt P24723); conditions: Compound concentration 1000.0 nM
[30] = molecular target: Mitogen-activated protein kinase 15 (Homo sapiens) (UniProt Q8TD08); conditions: Compound concentration 1000.0 nM
[31] = molecular target: Rho-associated protein kinase 1 (Homo sapiens) (UniProt Q13464); conditions: Compound concentration 1000.0 nM
[32] = tested on: Epidermal growth factor receptor (Homo sapiens), P00533 [UNDEFINED MUTATION]; conditions: Compound concentration 1000.0 nM
[33] = molecular target: Insulin receptor (Homo sapiens) (UniProt P06213); conditions: Compound concentration 1000.0 nM
[34] = molecular target: Tyrosine-protein kinase Mer (Homo sapiens) (UniProt Q12866); conditions: Compound concentration 1000.0 nM
[35] = molecular target: Mitogen-activated protein kinase kinase kinase 14 (Homo sapiens) (UniProt Q99558); conditions: Compound concentration 1000.0 nM
[36] = molecular target: Calcium/calmodulin-dependent protein kinase kinase 1 (Homo sapiens) (UniProt Q8N5S9); conditions: Compound concentration 1000.0 nM
[37] = molecular target: RAC-beta serine/threonine-protein kinase (Homo sapiens) (UniProt P31751); conditions: Compound concentration 1000.0 nM
[38] = molecular target: 5-hydroxytryptamine receptor 5A (Homo sapiens) (UniProt P47898); conditions: Compound concentration 10.0 uM
[39] = molecular target: Tyrosine-protein kinase ABL1 (Homo sapiens) (UniProt P00519); conditions: Compound concentration 1000.0 nM
[40] = molecular target: G protein-coupled receptor kinase 4 (Homo sapiens) (UniProt P32298); conditions: Compound concentration 1000.0 nM
[41] = tested on: Tyrosine-protein kinase ABL1 (Homo sapiens), P00519 [F317I]; conditions: Compound concentration 1000.0 nM
[42] = molecular target: Serine/threonine-protein kinase SIK3 (Homo sapiens) (UniProt Q9Y2K2); conditions: Compound concentration 1000.0 nM
Sequence of Serine/threonine-protein kinase SIK3 (Homo sapiens) (Q9Y2K2 whole entry, looked up): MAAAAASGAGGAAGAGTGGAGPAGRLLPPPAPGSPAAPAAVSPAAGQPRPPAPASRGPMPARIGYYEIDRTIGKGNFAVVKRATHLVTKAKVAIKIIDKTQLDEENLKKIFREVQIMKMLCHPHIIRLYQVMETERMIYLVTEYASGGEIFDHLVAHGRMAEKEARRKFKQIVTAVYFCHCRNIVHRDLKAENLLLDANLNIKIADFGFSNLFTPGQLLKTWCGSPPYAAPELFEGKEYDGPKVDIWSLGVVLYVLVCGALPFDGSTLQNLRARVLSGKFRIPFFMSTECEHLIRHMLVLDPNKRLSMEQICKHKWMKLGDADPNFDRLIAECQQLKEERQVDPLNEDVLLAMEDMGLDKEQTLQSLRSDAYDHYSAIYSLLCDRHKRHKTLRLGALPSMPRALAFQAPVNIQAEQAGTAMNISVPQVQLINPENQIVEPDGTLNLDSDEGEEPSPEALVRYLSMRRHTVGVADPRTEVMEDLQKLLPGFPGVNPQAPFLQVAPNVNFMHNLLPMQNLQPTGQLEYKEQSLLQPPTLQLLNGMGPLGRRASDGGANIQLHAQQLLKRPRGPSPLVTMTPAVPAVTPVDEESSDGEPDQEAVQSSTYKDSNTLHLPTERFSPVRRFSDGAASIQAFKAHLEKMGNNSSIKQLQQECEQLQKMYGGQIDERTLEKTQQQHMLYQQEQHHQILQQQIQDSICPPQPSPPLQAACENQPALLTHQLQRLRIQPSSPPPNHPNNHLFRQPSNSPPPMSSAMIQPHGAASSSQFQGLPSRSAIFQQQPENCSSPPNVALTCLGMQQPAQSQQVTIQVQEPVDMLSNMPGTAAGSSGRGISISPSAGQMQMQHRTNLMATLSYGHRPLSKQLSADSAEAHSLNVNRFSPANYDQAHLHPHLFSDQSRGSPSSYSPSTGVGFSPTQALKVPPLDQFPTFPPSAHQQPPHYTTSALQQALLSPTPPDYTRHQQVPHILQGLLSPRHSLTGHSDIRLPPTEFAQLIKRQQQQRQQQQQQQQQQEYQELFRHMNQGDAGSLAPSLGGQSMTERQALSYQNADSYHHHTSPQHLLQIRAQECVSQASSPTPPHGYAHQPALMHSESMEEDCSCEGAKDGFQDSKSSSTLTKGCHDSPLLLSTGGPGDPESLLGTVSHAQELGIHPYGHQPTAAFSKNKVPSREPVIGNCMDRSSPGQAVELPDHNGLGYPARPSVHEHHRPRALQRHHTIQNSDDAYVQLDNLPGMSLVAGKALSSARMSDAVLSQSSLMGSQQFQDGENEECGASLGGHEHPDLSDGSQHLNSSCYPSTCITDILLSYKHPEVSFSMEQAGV

[43] = molecular target: Wee1-like protein kinase (Homo sapiens) (UniProt P30291); conditions: Compound concentration 1000.0 nM
[44] = tested on: Mast/stem cell growth factor receptor Kit (Homo sapiens), P10721 [V559D]; conditions: Compound concentration 1000.0 nM
[45] = molecular target: Ribosomal protein S6 kinase alpha-5 (Homo sapiens) (UniProt O75582); conditions: Compound concentration 1000.0 nM

CC1=C(C#N)C(c2ccc3[nH]nc(C)c3c2)C(C#N)=C(C)N1 [BAY-474]
inactive: inhibition [1] -9% | inhibition [2] 4% | inhibition [3] -6% | inhibition [4] -7% | inhibition (Rattus norvegicus) 1% | inhibition [5] -8% | inhibition [6] 2% | inhibition [7] 0% | inhibition [8] 3% | inhibition [9] 2% | inhibition [10] 26% | inhibition [11] 2% | inhibition [12] 31% | inhibition [13] 13% | inhibition [14] 52% | inhibition [15] 5% | inhibition [16] -5% | inhibition [17] 11% | inhibition [18] -1% | inhibition [19] 7%

CC1=C(C#N)[C@@H](c2ccc3[nH]nc(C)c3c2)C(C#N)=C(c2ccc(Cl)cc2)N1 [BAY-827]
inactive: residual activity [20] 100% | residual activity [21] 100% | residual activity [22] 100% | residual activity [23] 100% | residual activity [24] 100% | residual activity [25] 84.3% | residual activity [26] 100% | residual activity [27] 99.9% | residual activity [28] 82.1% | residual activity [29] 96.1% | residual activity [30] 100% | residual activity [31] 68.5% | residual activity [32] 75.1% | residual activity [33] 100% | residual activity [34] 100% | residual activity [35] 100% | residual activity [36] 93.7% | residual activity [37] 100% | inhibition [38] 4.53% | residual activity [39] 82.9% | residual activity [40] 100% | residual activity [41] 100% | residual activity [42] 100% | residual activity [43] 100% | residual activity [44] 100% | residual activity [45] 100%
